Laboratory results as given in patent publication US9403872B2 (priority 1999, dated 2016).

Test system: human fibrosarcoma HT1080 cells
Assay type: cell-based

Structure (SMILES) | protection of HT1080 cells against WT-PA plus FP59
CNC(=O)[C@@H](NC(=O)[C@H](CC(C)C)[C@H](O)C(=O)NO)C(C)(C)C [BB-2516, Marimastat] | did not protect
CNC(=O)[C@H](Cc1c[nH]c2ccccc12)NC(=O)[C@@H](CC(=O)NO)CC(C)C [GM6001] | did not protect
